Assay results as given in PMC11219871, “Epigenetic-based differentiation therapy for Acute Myeloid Leukemia” (Nature Communications, 2024).
Several values for one entry are separate records, joined by “and”; a condition that tells them apart may be missing. Identical values can stand only once.

How the values were obtained:
HDAC6 = biological target: T1, HDAC6 (Homo sapiens, UniProt Q9UBN7); assay: HDAC enzymatic assay, fluorescence-labeled substrate; assay type: biochemical
T1 sequence (Q9UBN7 1-1215): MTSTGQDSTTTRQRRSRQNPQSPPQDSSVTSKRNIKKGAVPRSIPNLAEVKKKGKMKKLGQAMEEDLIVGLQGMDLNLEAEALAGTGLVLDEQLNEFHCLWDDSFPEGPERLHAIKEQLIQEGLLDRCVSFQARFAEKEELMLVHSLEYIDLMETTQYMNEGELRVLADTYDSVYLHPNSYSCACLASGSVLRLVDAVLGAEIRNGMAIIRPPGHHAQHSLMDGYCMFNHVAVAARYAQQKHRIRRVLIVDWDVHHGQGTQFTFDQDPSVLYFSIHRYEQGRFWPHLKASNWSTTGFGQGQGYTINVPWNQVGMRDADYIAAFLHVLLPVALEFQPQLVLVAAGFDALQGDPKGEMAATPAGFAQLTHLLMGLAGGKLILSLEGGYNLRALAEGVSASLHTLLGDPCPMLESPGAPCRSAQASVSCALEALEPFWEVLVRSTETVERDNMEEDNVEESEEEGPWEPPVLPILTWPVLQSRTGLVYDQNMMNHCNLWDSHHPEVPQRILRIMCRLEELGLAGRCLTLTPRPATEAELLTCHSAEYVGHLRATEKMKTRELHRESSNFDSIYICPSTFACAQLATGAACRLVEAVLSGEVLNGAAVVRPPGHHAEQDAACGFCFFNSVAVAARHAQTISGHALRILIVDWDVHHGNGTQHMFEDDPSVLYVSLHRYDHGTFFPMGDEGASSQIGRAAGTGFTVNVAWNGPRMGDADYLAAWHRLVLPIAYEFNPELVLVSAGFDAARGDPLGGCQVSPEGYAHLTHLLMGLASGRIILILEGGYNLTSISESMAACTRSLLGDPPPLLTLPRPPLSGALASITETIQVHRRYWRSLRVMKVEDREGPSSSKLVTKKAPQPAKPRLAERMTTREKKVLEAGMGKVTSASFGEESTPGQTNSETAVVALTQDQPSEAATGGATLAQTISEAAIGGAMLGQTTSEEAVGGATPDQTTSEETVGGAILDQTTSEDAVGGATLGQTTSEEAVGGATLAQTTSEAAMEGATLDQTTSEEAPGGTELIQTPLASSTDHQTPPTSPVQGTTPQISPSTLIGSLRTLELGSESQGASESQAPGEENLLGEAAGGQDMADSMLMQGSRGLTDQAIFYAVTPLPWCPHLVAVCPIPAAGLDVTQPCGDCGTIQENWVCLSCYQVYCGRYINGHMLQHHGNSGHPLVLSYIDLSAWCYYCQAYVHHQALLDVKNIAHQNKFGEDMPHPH

MV4-11 = assay: q-RT-PCR of MYC, CDKN2A, CDKN1A, GATA2, TAL1, CEBPA, SPI1; assay type: cell-based, human
Procedure: (§1) RNA was extracted with TRIzol Reagent (Invitrogen) according to the manufacturer’s instructions. First, cDNA was synthesized from 1 µg of total RNA using the PrimeScript RT reagent Kit (Perfect Real Time) (Cat No RR037A, TaKaRa) following the manufacturer’s instructions. The quality of cDNA was checked by a multiplex PCR that amplifies PBGD, ABL, BCR and β2-MG genes. […] The following program conditions were used for the q-PCR: 50 °C for 2 min, 95 °C for 60 s following by 45 cycles at 95 °C for 15 s and 60 °C for 60 s; melting program, one cycle at 95 °C for 15 s, 40 °C for 60 s, and 95 °C for 15 s. The relative expression of each gene was quantified by the […] method using the gene GUS as an endogenous control. The sequence of primers used can be found in Supplementary Table 10.

HL-60 = assay: as above; assay type: cell-based, human
Procedure: as §1

MOLM-13 = assay: as above; assay type: cell-based, human
Procedure: as §1

ML-2 = assay: as above; assay type: cell-based, human
Procedure: as §1

[1] = MV4-11, daily treatment for 48 h, replicates 1-3
[2] = HL-60, replicates 1-3 (Figure 2E)
[3] = HL-60, replicates 1-3 (Figure 2G)
[4] = HL-60 treated daily for 48 h, replicates (Fig 6F)
[5] = MOLM-13, daily treatment for 48 h, replicates 1-3
[6] = ML-2, replicates 1-3 (Figure 2E)
[7] = ML-2, replicates 1-3 (Figure 2G)
[8] = ML-2 treated daily for 48 h, replicates (Fig 6G)

COc1cc2nc(-c3ccc(C)o3)cc(NCC3CCN(c4ncc(C(=O)NO)cn4)CC3)c2cc1OC [CM-444, 2-[4-[[[6,7-dimethoxy-2-(5-methyl-2-furyl)-4-quinolyl]amino]methyl]-1-piperidyl]pyrimidine-5-carbohydroxamic acid]
inhibition at 10 µM (HDAC6; 10 µM, source data of Fig. 1B): 90% | IC50 (HDAC6; read-out: IC50): 531 nM | q-PCR of CEBPA, log10 (2-ΔΔCt) (MV4-11; [1]): 1.345 and 1.361 and 1.2654 | q-PCR of GATA2, log10 (2-ΔΔCt) (MV4-11; [1]): 2.051 and 2.02 and 2.0001 | q-PCR of MYC, log10 (2-ΔΔCt) (MV4-11; [1]): -0.5124 and -0.645 and -0.6461 | q-PCR of SPI1, log10 (2-ΔΔCt) (MV4-11; [1]): 0.5839 and 0.521 and 0.5293 | q-PCR of TAL1, log10 (2-ΔΔCt) (MV4-11; [1]): 0.7218 and 0.3689 and 0.9897 | CDKN1A log10 (2-ΔΔCt) (MV4-11; MV4-11, q-PCR): 0.9858 and 0.7237 and 0.8689 | CDKN2A log10 (2-ΔΔCt) (MV4-11; MV4-11, q-PCR): 1.137 and 1.036 and 1.001 | CEBPA log10 (2-ΔΔCt) (MV4-11; MV4-11, q-PCR): 1.693 and 1.502 and 1.597 | MYC log10 (2-ΔΔCt) (MV4-11; MV4-11, q-PCR): -0.5932 and -0.4926 and -0.5131 | SPI1 log10 (2-ΔΔCt) (MV4-11; MV4-11, q-PCR): 0.3258 | TAL1 log10 (2-ΔΔCt) (MV4-11; MV4-11, q-PCR): 0.527 and 0.4921 and 0.4657 | q-PCR of CDKN1A (p21), log10 (2-ΔΔCt) (HL-60; [2]): 1.981 and 1.653 and 1.57 | q-PCR of CDKN2A (p16), log10 (2-ΔΔCt) (HL-60; [2]): 0.3125 and 0.3822 and 0.4047 | q-PCR of MYC, log10 (2-ΔΔCt) (HL-60; [2]): -0.5893 and -0.4826 and -0.451 | q-PCR of CEBPA, log10 (2-ΔΔCt) (HL-60; [3]): 0.7569 and 0.6258 and 0.5709 | q-PCR of GATA2, log10 (2-ΔΔCt) (HL-60; [3]): 1.013 and 0.858 and 0.8451 | q-PCR of SPI1 (PU.1), log10 (2-ΔΔCt) (HL-60; [3]): 0.7127 and 0.6825 and 0.8316 | q-PCR of TAL1 (SCL), log10 (2-ΔΔCt) (HL-60; [3]): 0.1258 and 0.2369 and 0.3382 | q-PCR of CEBPA (HL-60; [4]): 1.462 log10 (2-ΔΔCt) and 1.7754 log10 (2-ΔΔCt) and 1.81 log10 (2-ΔΔCt) | q-PCR of GATA2 (HL-60; [4]): 0.8764 log10 (2-ΔΔCt) and 0.8459 log10 (2-ΔΔCt) and 0.7844 log10 (2-ΔΔCt) | q-PCR of MYC (HL-60; [4]): -0.6475 log10 (2-ΔΔCt) and -0.7277 log10 (2-ΔΔCt) and -0.6044 log10 (2-ΔΔCt) | q-PCR of SPI1 (HL-60; [4]): 0.6661 log10 (2-ΔΔCt) and 0.715 log10 (2-ΔΔCt) and 0.8576 log10 (2-ΔΔCt) | q-PCR of TAL1 (HL-60; [4]): 2.167 log10 (2-ΔΔCt) and 1.539 log10 (2-ΔΔCt) and 2.185 log10 (2-ΔΔCt) | q-PCR of CEBPA, log10 (2-ΔΔCt) (MOLM-13; [5]): 2.5418 and 2.486 and 2.37 | q-PCR of GATA2, log10 (2-ΔΔCt) (MOLM-13; [5]): 1.451 and 1.32 and 1.2001 | q-PCR of MYC, log10 (2-ΔΔCt) (MOLM-13; [5]): -0.5166 and -0.6125 and -0.4922 | q-PCR of SPI1, log10 (2-ΔΔCt) (MOLM-13; [5]): 0.3255 and 0.2581 and 0.1964 | q-PCR of TAL1, log10 (2-ΔΔCt) (MOLM-13; [5]): 1.582 and 1.681 and 1.836 | CDKN1A log10 (2-ΔΔCt) (MOLM-13; MOLM-13, q-PCR): 0.9026 and 0.7158 and 0.9504 | CDKN2A log10 (2-ΔΔCt) (MOLM-13; MOLM-13, q-PCR): 0.7237 and 0.7926 and 0.8396 | CEBPA log10 (2-ΔΔCt) (MOLM-13; MOLM-13, q-PCR): 1.789 and 1.635 and 1.622 | GATA2 log10 (2-ΔΔCt) (MOLM-13; MOLM-13, q-PCR): 0.9826 and 1.026 and 1.05 | MYC log10 (2-ΔΔCt) (MOLM-13; MOLM-13, q-PCR): -0.5821 and -0.5713 and -0.4455 | SPI1 log10 (2-ΔΔCt) (MOLM-13; MOLM-13, q-PCR): 0.02369 and 0.04258 and 0.1281 | TAL1 log10 (2-ΔΔCt) (MOLM-13; MOLM-13, q-PCR): 1.526 and 1.626 and 1.825 | q-PCR of CDKN1A (p21), log10 (2-ΔΔCt) (ML-2; [6]): 1.227 and 1.353 and 1.599 | q-PCR of CDKN2A (p16), log10 (2-ΔΔCt) (ML-2; [6]): 0.6515 and 0.5026 and 0.5454 | q-PCR of MYC, log10 (2-ΔΔCt) (ML-2; [6]): -1.502 and -1.26 and -1.4 | q-PCR of CEBPA, log10 (2-ΔΔCt) (ML-2; [7]): 0.9236 and 1.002 and 0.879 | q-PCR of GATA2, log10 (2-ΔΔCt) (ML-2; [7]): 2.413 and 2.636 and 2.689 | q-PCR of SPI1 (PU.1), log10 (2-ΔΔCt) (ML-2; [7]): 0.5237 and 0.6236 and 0.7619 | q-PCR of TAL1 (SCL), log10 (2-ΔΔCt) (ML-2; [7]): 0.9258 and 1.226 and 0.9453 | q-PCR of CEBPA (ML-2; [8]): 1.15 log10 (2-ΔΔCt) and 1.105 log10 (2-ΔΔCt) and 1.112 log10 (2-ΔΔCt) | q-PCR of GATA2 (ML-2; [8]): 1.841 log10 (2-ΔΔCt) and 1.852 log10 (2-ΔΔCt) and 1.8708 log10 (2-ΔΔCt) | q-PCR of MYC (ML-2; [8]): -0.8138 log10 (2-ΔΔCt) and -0.7958 log10 (2-ΔΔCt) and -0.772 log10 (2-ΔΔCt) | q-PCR of SPI1 (ML-2; [8]): 0.6179 log10 (2-ΔΔCt) and 0.715 log10 (2-ΔΔCt) and 0.7068 log10 (2-ΔΔCt) | q-PCR of TAL1 (ML-2; [8]): 0.9832 log10 (2-ΔΔCt) and 1.433 log10 (2-ΔΔCt) and 0.7663 log10 (2-ΔΔCt)
